System: Liver ApoB mRNA
Experiment: Liver ApoB mRNA knockdown by 1:57 SNALP containing cationic lipid and ApoB siRNA in mice (branched DNA QuantiGene assay)
Assay type: in vivo
Settings: Balb/c mice; for ApoB knockdown relative to PBS control (%): 1:57 SNALP containing the cationic lipid with ApoB siRNA, liver ApoB:GAPD mRNA, 48 h, n = 3; for ApoB silencing activity compared to a SNALP formulation containing the C2K benchmark cationic lipid: 1:57 SNALP with ApoB siRNA, administered at the same dose as C2K SNALP
Text: In some embodiments, siRNA molecules were encapsulated into serum-stable nucleic acid-lipid particles (SNALP) composed of the following lipids: (1) the lipid conjugate PEG2000-C-DMA (3-N-[(-methoxypoly(ethylene glycol)2000)carbamoyl]-1,2-dimyristyloxypropylamine); (2) one or more cationic lipids or salts thereof (e.g., cationic lipids of Formula I of the invention and/or other cationic lipids described herein); (3) the phospholipid DPPC (1,2-dipalmitoyl-sn-glycero-3-phosphocholine) (Avanti Polar Lipids; Alabaster, Ala.); and (4) synthetic cholesterol (Sigma-Aldrich Corp.; St. Louis, Mo.) in the molar ratio 1.4:57.1:7.1:34.3, respectively. In other words, siRNA molecules were encapsulated into SNALP of the following “1:57” formulation: 1.4% PEG2000-C-DMA; 57.1% cationic lipid; 7.1% DPPC; and 34.3% cholesterol. It should be understood that the 1:57 formulation is a target formulation, and that the amount of lipid (both cationic and non-cationic) present and the amount of lipid conjugate present in the formulation may vary. Typically, in the 1:57 formulation, the amount of cationic lipid will be 57.1 mol %±5 mol %, and the amount of lipid conjugate will be 1.4 mol %±0.5 mol %, with the balance of the 1:57 formulation being made up of non-cationic lipid (e.g., phospholipid, cholesterol, or a mixture of the two).
SNALP formulations were administered by IV injection at 0.033 mg/kg or at 0.05 mg/kg into Balb/c mice (n=3 per group). Liver ApoB mRNA levels were evaluated at 48 hours after SNALP administration by a branched DNA assay (QuantiGene assay) to assess ApoB mRNA relative to the housekeeping gene GAPDH.

Row | SMILES | ApoB knockdown relative to PBS control (%) (IV 0.05 mg/kg) | ApoB knockdown relative to PBS control (%) (IV 0.033 mg/kg) | ApoB silencing activity compared to a SNALP formulation containing the C2K benchmark cationic lipid
1 | CC(C)CCCC(C)CCCC(C)CCCC(C)CCC(CCC(C)CCCC(C)CCCC(C)CCCC(C)C)OC(=O)CCCCN(C)C (centres unmarked) [Compound 18, Phytanyl-MC4] | −46 | – | –
2 | CCCCC/C=C\C/C=C\CCCCCCCCC(CCCCCCCC/C=C/C/C=C/CCCCC)OC(=O)CCCN(C)C (centres unmarked) [Compound 25, (6Z,9Z,28E,31E)-heptatriaconta-6,9,28,31-tetraen-19-yl 4-(dimethylamino)butanoate] | −66 | – | –
3 | CCCCC/C=C\C/C=C\CCCCCCCCC(CCCCCCCC/C=C\C/C=C\CCCCC)OC(=O)CCCN(C)C [Compound 1, (6Z,9Z,28Z,31Z)-heptatriaconta-6,9,28,31-tetraen-19-yl 4-(dimethylamino)butanoate] | −81 | −71 | unexpectedly improved ApoB silencing activity
4 | CC/C=C\C/C=C\C/C=C\CCCCCCCCC(CCCCCCCC/C=C\C/C=C\C/C=C\CC)OCCCN(C)C [Compound 34, 3-((3Z,6Z,9Z,28Z,31Z,34Z)-heptatriaconta-3,6,9,28,31,34-hexaen-19-yloxy)-N,N-dimethylpropan-1-amine] | – | −41 | –
5 | CCCCC/C=C\C/C=C\CCCCCCCC(O)C(CCCCCCC/C=C\C/C=C\CCCCC)OC(=O)CCN(C)C (centres unmarked) [Compound 22, (6Z,9Z,27Z,30Z)-19-hydroxyhexatriaconta-6,9,27,30-tetraen-18-yl 3-(dimethylamino)propanoate] | – | −30 | –
6 | CCCCC/C=C\C/C=C\CCCCCCCCC(CCCCCCCC/C=C\C/C=C\CCCCC)OC(=O)N(C)CCCN(C)CC [Compound 30, (6Z,9Z,28Z,31Z)-heptatriaconta-6,9,28,31-tetraen-19-yl (3-(ethyl(methyl)amino)propyl)(methyl)carbamate] | −65 | – | –
7 | CCCCC/C=C\C/C=C\CCCCCCCCC(CCCCCCCC/C=C\C/C=C\CCCCC)OCCCN(C)C [Compound 13, 3-((6Z,9Z,28Z,31Z)-heptatriaconta-6,9,28,31-tetraen-19-yloxy)-N,N-dimethylpropan-1-amine] | – | −69 | unexpectedly improved ApoB silencing activity
8 | CC(C)CCCC(C)CCCC(C)CCCC(C)CCC(CCC(C)CCCC(C)CCCC(C)CCCC(C)C)OC(=O)CCCN(C)C (centres unmarked) [Compound 17, Phytanyl-MC3] | −14 | – | –
9 | CCCCC/C=C\C/C=C\C/C=C\CCCCCC(CCCCC/C=C\C/C=C\C/C=C\CCCCC)OC(=O)CCCN(C)C [Compound 8, γ-LenMC3] | – | −71 | unexpectedly improved ApoB silencing activity
10 | CCCCC/C=C\C/C=C\CCCCCCCCC1(CCCCCCCC/C=C\C/C=C\CCCCC)OCC(CCN(C)C)O1 (centres unmarked) [Compound C2K, 2,2-dilinoleyl-4-(2-dimethylaminoethyl)-[1,3]-dioxolane, reference compound] | −66 | −51 | –
11 | CCCCC/C=C\C/C=C\CCCCCCCCC(CCCCCCCC/C=C\C/C=C\CCCCC)OCCCCN(C)C [Compound 15, MC4 Ether] | −77 | – | unexpectedly improved ApoB silencing activity
12 | CC/C=C\C/C=C\C/C=C\CCCCCCCCC(CCCCCCCC/C=C\C/C=C\C/C=C\CC)OC(=O)CCCN(C)C [Compound 4, LenMC3] | – | −78 | unexpectedly improved ApoB silencing activity
13 | CCCCC/C=C\C/C=C\CCCCCCCCCC(CCCCCCC/C=C\C/C=C\CCCCC)OC(=O)N(CCCCCC)CCCN(C)C (centres unmarked) [Compound 27, (6Z,9Z,28Z,31Z)-heptatriaconta-6,9,28,31-tetraen-18-yl 3-(dimethylamino)propyl(hexyl)carbamate] | – | −66 | unexpectedly improved ApoB silencing activity
14 | CCCCC/C=C\C/C=C\CCCCCCCCC(CCCCCCCC/C=C\C/C=C\CCCCC)OC(=O)N(C)CCCN(CC)CC [Compound 31, (6Z,9Z,28Z,31Z)-heptatriaconta-6,9,28,31-tetraen-19-yl (3-(diethylamino)propyl)(methyl)carbamate] | −62 | – | –
15 | CCCCC/C=C\C/C=C\CCCCCCCCC(CCCCCCCC/C=C\C/C=C\CCCCC)SC(=O)CCCN(C)C [Compound 20, S-(6Z,9Z,28Z,31Z)-heptatriaconta-6,9,28,31-tetraen-19-yl 4 (dimethylamino) butanethioate] | −50 | – | –
16 | CC/C=C\C/C=C\C/C=C\CCCCCCCCC(CCCCCCCC/C=C\C/C=C\C/C=C\CC)OCCCCN(C)C [Compound 35, 4-((3Z,6Z,9Z,28Z,31Z,34Z)-heptatriaconta-3,6,9,28,31,34-hexaen-19-yloxy)-N,N-dimethylbutan-1-amine] | – | −78 | unexpectedly improved ApoB silencing activity
17 | CCCCC/C=C\C/C=C\CCCCCCCCC(CCCCCCCC/C=C\C/C=C\CCCCC)OC(=O)N(C)CCN(C)C [Compound 11, MC2MC] | −54 | – | –
18 | CC/C=C\CCCN(CCCN(C)C)C(=O)OC(CCCCCCC/C=C\C/C=C\CCCCC)CCCCCCCCC/C=C\C/C=C\CCCCC (centres unmarked) [Compound 28, (6Z,9Z,28Z,31Z)-heptatriaconta-6,9,28,31-tetraen-18-yl 3-(dimethylamino)propyl((Z)-hept-4-enyl)carbamate] | – | −68 | unexpectedly improved ApoB silencing activity
19 | CCCCC/C=C\C/C=C\CCCCCCCCCC(CCCCCCC/C=C\C/C=C\CCCCC)OC(=O)N(CC)CCN(C)C (centres unmarked) [Compound 29, (6Z,9Z,28Z,31Z)-heptatriaconta-6,9,28,31-tetraen-18-yl 2-(dimethylamino)ethyl(ethyl)carbamate] | −59 | – | –
20 | CCC1CC1CC1CC1CC1CC1CCCCCCCCC(CCCCCCCCC1CC1CC1CC1CC1CC1CC)OC(=O)CCCN(C)C (centres unmarked) [Compound 5] | – | −56 | –
21 | CCCCCC1CC1CC1CC1CC1CC1CCCCCC(CCCCCC1CC1CC1CC1CC1CC1CCCCC)OC(=O)CCCN(C)C (centres unmarked) [Compound 9, CP-γ-LenMC3] | – | −54 | –
22 | CCC/C=C\C/C=C\CCCCCCCCC(CCCCCCCC/C=C\C/C=C\CCCCC)OC(=O)N(C)CCCN(C)C (centres unmarked) [Compound 10, MC3MC] | – | −50 | –
23 | CCCCC/C=C\C/C=C\CCCCCCCC(=O)C(CCCCCCC/C=C\C/C=C\CCCCC)OC(=O)CCCN(C)C (centres unmarked) [Compound 23, (6Z,9Z,27Z,30Z)-19-oxohexatriaconta-6,9,27,30-tetraen-18-yl 4-(dimethylamino)butanoate] | – | −33 | –
24 | CCCCCC/C=C/C=C\CCCCCCCCC(CCCCCCCC/C=C\C=C\CCCCCC)OCCCN(C)C [Compound 41, 3-((7E,9Z,28Z,30E)-heptatriaconta-7,9,28,30-tetraen-19-yloxy)-N,N-dimethylpropan-1-amine] | – | −52 | –
25 | CCCCC/C=C/C/C=C/CCCCCCCCC(CCCCCCCC/C=C/C/C=C/CCCCC)OC(=O)CCCN(C)C [Compound 40, (6E,9E,28E,31E)-heptatriaconta-6,9,28,31-tetraen-19-yl 4-(dimethylamino)butanoate] | −58 | – | –

— patent publication US20170151333A1, “NOVEL CATIONIC LIPIDS AND METHODS OF USE THEREOF” (PROTIVA BIOTHERAPEUTICS, INC., priority 2010, published 2017)
